pIC50: −log10 of the molar value.
What was measured:
[1] = tested on: SKNSH nerve cells; test: Inhibition of calcium flux (IC50Ca2+) on SKNSH nerve cells; assay type: cell-based; settings: Homo sapiens, SK-N-SH, concentration which inhibits release of Ca2+ by 50%
Description: (§1) In order for a substance to be recognized as a calcium-channel inhibitor, it must be able to reduce the intracellular calcium concentration or reduce the binding of calcium to intracellular proteins, such as, for example, calmodulin, such as is described in particular by Galizzi, J. P. et al., J. Biol. Chem., 1987, 262 p. 6947; by Y. Okamiya et al., Eur. J. Pharmacol., 1991, 205, p. 49; by J. A. Wagner et al., J. Neurosci., 1988, 8, p. 3354; by H. R. Lee et al., Life Sci., 1984, 35, p. 721; by Schoemaker H. and Lauger S., Eur. J. Pharmacol., 1985, 111, p. 273 or by I. J. Reynolds et al., J. Pharmacol. Exp. Ther., 1986, 237, p. 731.
(§2) The Applicant determined the IC50Ca2+ for inhibition of calcium flux of three compounds according to the invention using the protocol shown in these documents. IC50Ca2+ represents the concentration which inhibits release of Ca^2+ by 50%.

[2] = tested on: Ca2+ channel (L, verapamil site); test: Competitive inhibition of [3H]-(-)-D888 binding to L-type calcium channels, rat cerebral cortex homogenates; settings: 1 μM in DMSO; [3H]-(-)-D888 0.5 nM; 60 min/22° C.
Description: The experimental conditions are as follows:
D888, which is [^3H]-(−)-desmethoxyverapamil, acts as radiolabelled specific ligand and D600, which is (±)-methoxyverapamil hydrochloride, acts as reference molecule.
The specific binding of a ligand (labelled D888) to the receptors (L-type calcium channels, verapamil site) is defined as the difference between the total binding and the non-specific binding determined in the presence of an excess of cold (nonradioactive) ligand. The results are expressed as percentage of inhibition of the specific binding of the control in the presence of the compound tested.

[3] = tested on: cells resulting from HFDa skin fibroblasts; test: Inhibition of calcium flux (IC50Ca2+) on cells from HFDa skin fibroblasts; assay type: cell-based; settings: Skin fibroblast, concentration which inhibits release of Ca2+ by 50%
Description: as §1, §2

[4] = tested on: human striated muscle cells innervated with explants of rat embryo spinal ganglia and spinal cord; test: Nerve/muscle coculture model, contractions of muscle fibres; assay type: cell-based; settings: earlier demonstration by the Applicant Company, concentration not given
Description: The mixture of compounds of Example 2 was tested on a model of nerve/muscle coculture which makes it possible to recreate a motor arc by innervating human striated muscle cells with explants of rat embryo spinal ganglia and spinal cord.
Human muscle cells, resulting from samples of striated muscles from a healthy donor, are inoculated in wells with a cross section of 1.8 cm^2 (24-well culture dishes). After culturing for 10 days, these cells form a monolayer and fuse. At this stage, spinal cord explants from rat embryos aged 13 days comprising the spinal ganglia are deposited on the culture.
The growth of the neurites is visible outside the spinal cord explant after culturing for one day. The first contractions of the muscle fibres are observed after coculturing for 5 to 6 days and, after 3 weeks, all the muscle fibres in the vicinity of the explants are contracting.
The cocultures are used after 21 days, when the muscle fibres are striated and have mature differentiated neuromuscular junctions.
A muscle fibre having regular contractions (at least 60 contractions per minute) is then selected from three different culture wells and the number of contractions is counted over 30 seconds. […] At the end of incubation, the number of contractions is again counted over 30 seconds. […]

[5] = Antiwrinkle activity in vivo; settings: earlier demonstration, no details

| SMILES | pIC50 [1] | percentage of inhibition of the specific binding of the control [2] [%] | pIC50 [3] | contractions of the muscle fibres [4] | antiwrinkle activity [5] |
| --- | --- | --- | --- | --- | --- |
| CCCCCCCCCC(=O)OCCOCCN(CC)CC [((Diethylamino)ethoxy)ethyl decanoate] | 4.59 |  |  |  |  |
| CCCCCCCCCCCC(=O)OCCOCCN(CC)CC [((Diethylamino)ethoxy)ethyl laurate, ((diethylamino)ethoxy)ethyl laurate] | 4.96 | 31 | 4.89 |  |  |
| CCCCCCCCCCCCCCCC(=O)OCCOCCN(CC)CC [((Diethylamino)ethoxy)ethyl palmitate] | 4.62 |  | 4.85 |  |  |
| CCCCCCCCCCCCCCCCCC(=O)OCCOCCN(CC)CC [((Diethylamino)ethoxy)ethyl stearate] | 4.43 |  |  |  |  |
| CN1C(=O)CN=C(c2ccccc2)c2cc(Cl)ccc21 [diazepam] |  |  |  | inhibited the contractions of the muscle fibres | demonstrated in vivo |
